Source: the supplement of paper PMC10307832

Assays:
Test in all cases: relative viability (nuclei count vs DMSO), 5 days (fraction); higher = more cells survive
[1] = compound: C1=CC=C(C(=C1)C2=CC=C(C=C2)C3=CSC4=C3C(=C(C(=O)N4)C#N)O)O + CC(C)C[C@H](NC(=O)[C@H](Cc1ccccc1)NC(=O)c1cnccn1)B(O)O [Bortezomib] (partner 0.002 µM)
How it was run: (§1)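 Relative viability equals treated-well nuclei counts divided by vehicle-well nuclei counts. Counts came from 4× images of lung cancer cell lines grown in 1536-well plates for 5 days after pin-tool dosing on the day after seeding. Dosing used one drug alone or a fixed anchor-drug dose plus five library-drug doses (not always all listed) in √10 steps, and values are medians of duplicate plates.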

[2] = compound: CC1=CN2C(=O)C=C(N=C2C(=C1)C(C)NC3=CC=CC=C3)N4CCOCC4 [TGX 221] + Nc1ncn([C@H]2C[C@H](O)[C@@H](CO)O2)c(=O)n1 [Decitabine] (partner 2 µM)
How it was run: as §1

[3] = compound: C1=CC=C(C(=C1)C2=CC=C(C=C2)C3=CSC4=C3C(=C(C(=O)N4)C#N)O)O + CS(=O)(=O)N1CCN(Cc2cc3nc(-c4cccc5[nH]ncc45)nc(N4CCOCC4)c3s2)CC1 [Pictilisib] (partner 1 µM)
How it was run: as §1

[4] = compound: CC1=CN2C(=O)C=C(N=C2C(=C1)C(C)NC3=CC=CC=C3)N4CCOCC4 [TGX 221] + N=C(N)NC(=N)NCCc1ccccc1 [Phenformin] (partner 250 µM)
How it was run: as §1

Row | Cell Line | relative viability ([1]; first compound 0.08 µM) | relative viability ([1]; first compound 0.253 µM) | relative viability ([1]; first compound 0.8 µM) | relative viability ([1]; first compound 2.53 µM) | relative viability ([1]; first compound 8 µM) | relative viability ([2]; first compound 0.08 µM) | relative viability ([2]; first compound 0.253 µM) | relative viability ([2]; first compound 0.8 µM) | relative viability ([2]; first compound 2.53 µM) | relative viability ([2]; first compound 8 µM) | relative viability ([3]; first compound 0.08 µM) | relative viability ([3]; first compound 0.253 µM) | relative viability ([3]; first compound 0.8 µM) | relative viability ([3]; first compound 2.53 µM) | relative viability ([3]; first compound 8 µM) | relative viability ([4]; first compound 0.08 µM) | relative viability ([4]; first compound 0.253 µM) | relative viability ([4]; first compound 0.8 µM) | relative viability ([4]; first compound 2.53 µM) | relative viability ([4]; first compound 8 µM)
1 | HCC-827 | 0.967 | 1.05 | 1 | 1.08 | 1.07 | 0.292 | 0.359 | 0.281 | 0.305 | 0.327 | 1.11 | 1.05 | 0.819 | 0.996 | 0.986 | 0.386 | 0.4 | 0.344 | 0.359 | 0.334
2 | NCI-H2085 | 0.919 | 1.26 | 1.01 | 0.952 | 0.992 | 0.59 | 0.524 | 0.548 | 0.414 | 0.451 | 0.414 | 0.517 | 0.528 | 0.418 | 0.399 | 0.817 | 0.562 | 0.588 | 0.462 | 0.425
3 | EPLC-272H |  | 0.973 | 0.852 | 0.858 | 0.652 | 0.352 | 0.349 | 0.316 | 0.343 | 0.332 |  | 0.251 | 0.264 | 0.299 | 0.292 | 0.298 | 0.275 | 0.291 | 0.269 | 0.27
4 | A-427 | 0.963 | 1.05 | 1.02 | 1.03 | 1.06 | 0.548 | 0.55 | 0.558 | 0.594 | 0.519 | 0.577 | 0.751 | 0.683 | 0.75 | 0.886 | 0.341 | 0.297 | 0.307 | 0.39 | 0.326
5 | ABC-1 | 0.281 | 0.326 | 0.326 | 0.364 | 0.324 | 1.06 | 1.26 | 1 | 1.07 | 0.923 | 0.678 | 0.881 | 0.949 | 0.59 | 0.548 | 0.228 | 0.228 | 0.19 | 0.217 | 0.253
6 | EMC-BAC-2 | 0.995 | 1.25 | 1.15 | 1.05 | 0.957 | 0.961 | 0.886 | 0.947 | 1.05 | 0.85 | 0.526 | 0.516 | 0.562 | 0.544 | 0.477 | 0.528 | 0.508 | 0.506 | 0.499 | 0.519
7 | NCI-H2405 | 1.02 | 0.991 | 0.977 | 0.954 | 0.988 | 0.72 | 0.729 | 0.75 | 0.68 | 0.615 | 0.379 | 0.439 | 0.443 | 0.436 | 0.295 | 0.386 | 0.405 | 0.379 | 0.44 | 0.338
8 | NCI-H1993 | 1.03 | 1.08 | 1.08 | 1.14 | 0.979 | 0.593 | 0.693 | 0.663 | 0.598 | 0.547 | 0.901 | 1.01 | 0.762 | 0.902 | 0.828 | 0.427 | 0.568 | 0.54 | 0.517 | 0.54
9 | LU99A | 1.26 | 1.03 | 1.43 | 1.14 | 1 | 0.861 | 0.842 | 0.852 | 0.937 | 0.997 | 0.283 | 0.307 | 0.339 | 0.332 | 0.295 | 0.785 | 0.831 | 0.9 | 0.93 | 0.834
10 | ChaGo-K-1 | 0.658 | 0.955 | 0.957 | 1.21 | 0.954 | 0.485 | 0.519 | 0.563 | 0.544 | 0.548 | 0.387 | 0.634 | 0.554 | 0.747 | 0.829 | 0.479 | 0.512 | 0.481 | 0.456 | 0.494
11 | NCI-H1355 | 0.981 | 1.31 | 1.25 | 1.12 | 1.19 | 0.35 | 0.349 | 0.355 | 0.325 | 0.309 | 0.478 | 0.541 | 0.416 | 0.325 | 0.447 | 0.439 | 0.465 | 0.439 | 0.419 | 0.433
12 | NCI-H838 | 0.776 | 0.816 | 1.03 | 0.715 | 0.634 | 0.443 | 0.448 | 0.462 | 0.447 | 0.452 | 0.329 | 0.49 | 0.367 | 0.367 | 0.403 | 0.607 | 0.534 | 0.496 | 0.471 | 0.428
13 | NCI-H460 |  | 0.828 | 1.34 | 1.41 | 0.624 | 0.488 | 0.442 | 0.489 | 0.453 | 0.401 | 0.339 | 0.325 | 0.367 | 0.319 | 0.333 | 0.508 | 0.466 | 0.53 | 0.536 | 0.467
14 | HCC-78 | 0.529 | 0.771 | 0.536 | 0.417 | 0.428 | 0.589 | 0.736 | 0.699 | 0.693 | 0.68 | 0.169 | 0.286 | 0.205 | 0.192 | 0.196 | 0.675 | 0.641 | 0.533 | 0.558 | 0.604
15 | H3255 | 0.79 | 0.802 | 0.646 | 0.789 | 0.686 | 0.54 | 0.595 | 0.53 | 0.58 | 0.553 | 0.483 | 0.514 | 0.447 | 0.536 | 0.467 | 0.369 | 0.382 | 0.326 | 0.374 | 0.354
16 | NCI-H2023 | 1.16 | 1.03 | 0.637 | 0.887 | 0.908 | 0.224 | 0.236 | 0.243 | 0.217 | 0.23 | 0.185 | 0.215 | 0.263 | 0.204 | 0.22 | 0.431 | 0.373 | 0.397 | 0.39 | 0.288
